Measured values: patent publication US12357711B2, “PSMA binding dual mode radiotracer and therapeutic” (Technische Universität München, priority 2019, dated 2025)

Test system: SCID mice
Assay: Preclinical dosimetry from biodistribution in mice, extrapolated to 70-kg Standard Adult (OLINDA/EXM 1.0)
Assay type: in vivo
Conditions: […] bladder voiding interval
Experimental: 3-5 mice were injected per timepoint with a mean 25.6±3.6 MBq of 18F-rhPSMA-7 and 28.5±4.8 MBq of 18F-rhPSMA-7.3, respectively. Mice, severe combined immunodeficiency (SCID) were used for the experiments.
Mice were sacrificed at the following timepoints: • ^18F-rhPSMA-7: 10, 20, 40, 60, 120 and 180 minutes after administration. • ^18F-rhPSMA-7.3: 10, 60, 120, 180 and 300 minutes after administration.
Urine, blood, heart, lung, spleen, pancreas, liver, stomach (emptied), small intestine (emptied), large intestine (emptied), kidneys, bladder, testis, fat, muscle (partial, femoral), femur, tail and brain. Urine was collected with a pipette in the CO2 gas chamber. In case of missing urination in the chamber the bladder was aspirated with an insulin syringe. Blood was withdrawn instantly after sacrifice with an insulin syringe from the heart. All other tissues and organs were dissected and transferred directly in plastic containers.
The counting rates of measurement samples were automatically corrected for decay. The radioactivity distribution ratios (unit: percentage of the injected dose (% ID) in the measurement samples were determined using the equation below. The sum of the counting rates from all measurement samples obtained from one mouse was designated as the counting rate for administrated radioactivity.
The radioactivity distribution ratio per unit weight of the measurement sample (unit: % ID/g) excluding urine and feces samples was determined by using the equation below. The weight of the measurement sample was determined by subtraction of the empty measurement container from the container including the sample.
For consistency of statistical calculations for each radiotracer the same number of time-points for ^18F-rhPSMA-7 and ^18F-rhPSMA-7.3 was used. Therefore, for ^18F-rhPSMA-7 the 10 min and 20 min time points were combined creating a 15 min endpoint.
The time-integral of activity for the accumulation in the significant source organs (AUCs) were generated both with numerical integration and physical decay according to J Juan et al., Journal of Pharmaceutical Sciences, 1993, 82:762-763.
In brief, to calculate a human dosimetry from the biodistribution in the mice, an extrapolation was necessary to account for the differences between the animals and humans. Normal-organ radiation doses were estimated for the 70-kg Standard Adult anatomic model using time-depending organ activity concentrations (in percent of the injected dose per gram, % ID/g) and total-body activities measured in the biodistribution studies in mice.
Tissue activity concentrations in mice were converted to tissue fractional activities in the 70-kg Standard Adult using the relative fractional organ masses in the Standard Adult and the “standard” 25-gramm mouse. Time-dependent total-body activity was fit to an exponential function and the difference between the injected activity and the total-body activity was assumed to be excreted to the urine because activity concentrations in the liver and GI tracer were low at all time points studied.
Organ residence time was calculated by numerical integration using the trapezoidal rule and the rest-of-body ^18F residence times was calculated as the difference between the total-body residence time and the sum of the organ and urine residence times. The bladder contents residence time was estimated using the dynamic voiding model in the OLINDA/EXM 1.0 dosimetry software. Finally, the Standard Adult mean organ dose equivalents (in mSv/MBq) and effective dose (also in mSv/MBq) were then calculated using OLIN DA/EXM 1.0.
Final calculation of radiation absorbed dose and dosimetry from biodistribution in mice: The tissues or organs in which a significant accumulation of radioactivity occurs (i.e., source organ) were kidney, spleen, lung, liver and heart. With respect to activity accumulation and clearance, a rapid clearance from blood and clearance to urine but relatively slow build-up in kidney was found.

Q: With “[^19F][^natGa]D/L-Dap-R/S-DOTAGA-rhPSMA7 [rhPSMA7-rac]” as the substance, how does the “Pancreas dose Beta” value read?
A: 1.95E−03 mSv/MBq

Q: And the “Pancreas dose Photon” value?
A: 6.13E−03 mSv/MBq

Q: What about the “Pancreas dose Total” value of the same substance?
A: 8.08E−03 mSv/MBq

Q: And the “Red Marrow ED Cont.” value?
A: 8.16E−04 mSv/MBq

Q: And the “Red Marrow EDE Cont.” value?
A: 8.16E−04 mSv/MBq

Q: And the “Red Marrow dose Alpha” value?
A: 0.00E000 mSv/MBq

Q: And the “Red Marrow dose Beta” value?
A: 1.39E−03 mSv/MBq

Q: And the “Red Marrow dose Photon” value?
A: 5.41E−03 mSv/MBq

Q: And the “Red Marrow dose Total” value?
A: 6.80E−03 mSv/MBq

Q: What about the “Skin ED Cont.” value of the same substance?
A: 4.93E−05 mSv/MBq

Q: And the “Skin EDE Cont.” value?
A: 0.00E000 mSv/MBq

Q: What about the “Skin dose Alpha” value of the same substance?
A: 0.00E000 mSv/MBq

Q: What about the “Skin dose Beta” value of the same substance?
A: 1.95E−03 mSv/MBq

Q: And the “Skin dose Photon” value?
A: 2.98E−03 mSv/MBq

Q: What about the “Skin dose Total” value of the same substance?
A: 4.93E−03 mSv/MBq

Q: And the “Small Intestine ED Cont.” value?
A: 5.18E−05 mSv/MBq

Q: What about the “Small Intestine EDE Cont.” value of the same substance?
A: 0.00E000 mSv/MBq

Q: And the “Small Intestine dose Alpha” value?
A: 0.00E000 mSv/MBq

Q: What about the “Small Intestine dose Beta” value of the same substance?
A: 1.95E−03 mSv/MBq

Q: What about the “Small Intestine dose Photon” value of the same substance?
A: 8.40E−03 mSv/MBq

Q: What about the “Small Intestine dose Total” value of the same substance?
A: 1.04E−02 mSv/MBq

Q: What about the “Spleen ED Cont.” value of the same substance?
A: 1.30E−04 mSv/MBq

Q: And the “Spleen EDE Cont.” value?
A: 1.56E−03 mSv/MBq

Q: What about the “Spleen dose Alpha” value of the same substance?
A: 0.00E000 mSv/MBq

Q: What about the “Spleen dose Beta” value of the same substance?
A: 1.59E−02 mSv/MBq

Q: And the “Spleen dose Photon” value?
A: 1.01E−02 mSv/MBq

Q: And the “Spleen dose Total” value?
A: 2.61E−02 mSv/MBq

Q: And the “Stomach Wall ED Cont.” value?
A: 8.40E−04 mSv/MBq

Q: What about the “Stomach Wall EDE Cont.” value of the same substance?
A: 0.00E000 mSv/MBq

Q: And the “Stomach Wall dose Alpha” value?
A: 0.00E000 mSv/MBq

Q: What about the “Stomach Wall dose Beta” value of the same substance?
A: 1.95E−03 mSv/MBq

Q: And the “Stomach Wall dose Photon” value?
A: 5.05E−03 mSv/MBq

Q: What about the “Stomach Wall dose Total” value of the same substance?
A: 7.00E−03 mSv/MBq

Q: What about the “Testes ED Cont.” value of the same substance?
A: 0.00E000 mSv/MBq

Q: What about the “Testes EDE Cont.” value of the same substance?
A: 0.00E000 mSv/MBq

Q: What about the “Testes dose Alpha” value of the same substance?
A: 0.00E000 mSv/MBq

Q: And the “Testes dose Beta” value?
A: 1.95E−03 mSv/MBq

Q: And the “Testes dose Photon” value?
A: 9.69E−03 mSv/MBq

Q: And the “Testes dose Total” value?
A: 1.16E−02 mSv/MBq

Q: What about the “Thymus ED Cont.” value of the same substance?
A: 2.59E−05 mSv/MBq

Q: What about the “Thymus EDE Cont.” value of the same substance?
A: 0.00E000 mSv/MBq

Q: What about the “Thymus dose Alpha” value of the same substance?
A: 0.00E000 mSv/MBq

Q: And the “Thymus dose Beta” value?
A: 1.95E−03 mSv/MBq

Q: What about the “Thymus dose Photon” value of the same substance?
A: 3.24E−03 mSv/MBq

Q: What about the “Thymus dose Total” value of the same substance?
A: 5.18E−03 mSv/MBq

Q: What about the “Thyroid ED Cont.” value of the same substance?
A: 2.59E−04 mSv/MBq

Q: And the “Thyroid EDE Cont.” value?
A: 1.55E−04 mSv/MBq

Q: And the “Thyroid dose Alpha” value?
A: 0.00E000 mSv/MBq

Q: And the “Thyroid dose Beta” value?
A: 1.95E−03 mSv/MBq

Q: And the “Thyroid dose Photon” value?
A: 3.23E−03 mSv/MBq

Q: What about the “Thyroid dose Total” value of the same substance?
A: 5.18E−03 mSv/MBq

Q: And the “Total Body ED Cont.” value?
A: 0.00E000 mSv/MBq

Q: What about the “Total Body EDE Cont.” value of the same substance?
A: 0.00E000 mSv/MBq

Q: And the “Total Body dose Alpha” value?
A: 0.00E000 mSv/MBq

Q: And the “Total Body dose Beta” value?
A: 2.37E−03 mSv/MBq

Q: And the “Total Body dose Photon” value?
A: 5.39E−03 mSv/MBq

Q: And the “Total Body dose Total” value?
A: 7.77E−03 mSv/MBq

Q: What about the “ULI Wall ED Cont.” value of the same substance?
A: 4.63E−05 mSv/MBq

Q: And the “ULI Wall EDE Cont.” value?
A: 0.00E000 mSv/MBq

Q: What about the “ULI Wall dose Alpha” value of the same substance?
A: 0.00E000 mSv/MBq

Q: And the “ULI Wall dose Beta” value?
A: 1.95E−03 mSv/MBq

Q: And the “ULI Wall dose Photon” value?
A: 7.31E−03 mSv/MBq

Q: And the “ULI Wall dose Total” value?
A: 9.26E−03 mSv/MBq

Q: What about the “Urinary Bladder Wall ED Cont.” value of the same substance?
A: 1.77E−02 mSv/MBq

Q: And the “Urinary Bladder Wall EDE Cont.” value?
A: 2.12E−02 mSv/MBq

Q: And the “Urinary Bladder Wall dose Alpha” value?
A: 0.00E000 mSv/MBq

Q: And the “Urinary Bladder Wall dose Beta” value?
A: 2.45E−01 mSv/MBq

Q: And the “Urinary Bladder Wall dose Photon” value?
A: 1.08E−01 mSv/MBq

Q: What about the “Urinary Bladder Wall dose Total” value of the same substance?
A: 3.54E−01 mSv/MBq

Q: And the “Uterus ED Cont.” value?
A: 1.40E−04 mSv/MBq

Q: What about the “Uterus EDE Cont.” value of the same substance?
A: 1.68E−03 mSv/MBq

Q: What about the “Uterus dose Alpha” value of the same substance?
A: 0.00E000 mSv/MBq

Q: And the “Uterus dose Beta” value?
A: 1.95E−03 mSv/MBq

Q: And the “Uterus dose Photon” value?
A: 2.61E−02 mSv/MBq

Q: And the “Uterus dose Total” value?
A: 2.80E−02 mSv/MBq
